In PMC10066365, “Nemacol is a small molecule inhibitor of C. elegans vesicular acetylcholine transporter with anthelmintic potential” (Nature Communications, 2023):
“And” between values parts separate entries of the source, which are not always exact repeats. Equal values may be shown once.

Tested on: C. elegans
Experiment: C. elegans motor phenotype scoring on solid media (Punc/jerky-unc, coiled, paralyzed), wild-type young adults
Assay type: in vivo, Caenorhabditis elegans
Conditions: for AVERAGES Fraction Punc / AVERAGES Fraction Coiled / AVERAGES Fraction Paralyzed: mean of 3 replicates; for Fraction Coiled / Fraction Paralyzed / Fraction Punc: single replicate
[1] = 60uM, one hour, young adults, 20 animals per trial, single replicate counts

SMILES: CCC1CCC(N2CCN(c3ccc([N+](=O)[O-])cc3)CC2)CC1 (stereo not shown) [Nemacol-2]
- AVERAGES Fraction Punc (30 μM, 90 min, adults): 0.556
- Fraction Coiled (30 μM, 90 min, adults): 0.278 and 0.167
- Fraction Paralyzed (30 μM, 90 min, adults): 0.278 and 0.167
- Fraction Punc (30 μM, 90 min, adults): 0.444 and 0.556 and 0.667
- C1 (number of animals) (30 μM, 120 min, adults): 3 and 2
- C2 (number of animals) (30 μM, 120 min, adults): 1 and 2
- NP (number of animals) (30 μM, 120 min, adults): 0
- AVERAGES Fraction Coiled (30 μM, 120 min, adults): 0.2
- AVERAGES Fraction Paralyzed (30 μM, 120 min, adults): 0.278
- AVERAGES Fraction Punc (30 μM, 120 min, adults): 0.5
- Fraction Coiled (30 μM, 120 min, adults): 0.222 and 0.167
- Fraction Paralyzed (30 μM, 120 min, adults): 0.556 and 0.222 and 0.0556
- Fraction Punc (30 μM, 120 min, adults): 0.222 and 0.6 and 0.7
- NP (number of animals) (30 μM, 240 min, adults): 2 and 3 and 4
- P (number of animals) (30 μM, 240 min, adults): 4 and 2
- Punc (number of animals) (30 μM, 240 min, adults): 11 and 12
- AVERAGES Fraction Coiled (30 μM, 240 min, adults): 0.0556
- AVERAGES Fraction Paralyzed (30 μM, 240 min, adults): 0.148
- AVERAGES Fraction Punc (30 μM, 240 min, adults): 0.6
- Fraction Coiled (30 μM, 240 min, adults): 0.0556 and 0.111 and 0.0
- Fraction Paralyzed (30 μM, 240 min, adults): 0.222 and 0.111
- Fraction Punc (30 μM, 240 min, adults): 0.6 and 0.667
- C2 (number of animals) (30 μM, 360 min, adults): 0
- NP (number of animals) (30 μM, 360 min, adults): 6 and 9 and 10
- Punc (number of animals) (30 μM, 360 min, adults): 5 and 7 and 8
- AVERAGES Fraction Coiled (30 μM, 360 min, adults): 0.0196
- AVERAGES Fraction Paralyzed (30 μM, 360 min, adults): 0.135
- AVERAGES Fraction Punc (30 μM, 360 min, adults): 0.376
- Fraction Coiled (30 μM, 360 min, adults): 0.0588 and 0.0
- Fraction Paralyzed (30 μM, 360 min, adults): 0.3 and 0.111 and 0.0
- Fraction Punc (30 μM, 360 min, adults): 0.3 and 0.4 and 0.444
- C1 (number of animals) (60 μM, 30 min, adults): 3 and 4
- C2 (number of animals) (60 μM, 30 min, adults): 2
- NP (number of animals) (60 μM, 30 min, adults): 0
- Punc (number of animals) (60 μM, 30 min, adults): 7 and 10 and 12
- AVERAGES Fraction Coiled (60 μM, 30 min, adults): 0.3
- AVERAGES Fraction Paralyzed (60 μM, 30 min, adults): 0.154
- AVERAGES Fraction Punc (60 μM, 30 min, adults): 0.545
- Fraction Coiled (60 μM, 30 min, adults): 0.3 and 0.333 and 0.278
- Fraction Paralyzed (60 μM, 30 min, adults): 0.3 and 0.111 and 0.0556
- Fraction Punc (60 μM, 30 min, adults): 0.4 and 0.556 and 0.667
- C2 (number of animals) (60 μM, 60 min, adults): 2 and 4 and 3
- NP (number of animals) (60 μM, 60 min, adults): 0
- P (number of animals) (60 μM, 60 min, adults): 9 and 7 and 8
- Punc (number of animals) (60 μM, 60 min, adults): 4 and 6
- AVERAGES Fraction Coiled (60 μM, 60 min, adults): 0.259
- AVERAGES Fraction Paralyzed (60 μM, 60 min, adults): 0.444
- AVERAGES Fraction Punc (60 μM, 60 min, adults): 0.3
- Fraction Coiled (60 μM, 60 min, adults): 0.278 and 0.222
- Fraction Paralyzed (60 μM, 60 min, adults): 0.5 and 0.4 and 0.444
- Fraction Punc (60 μM, 60 min, adults): 0.222 and 0.333
- C1 (number of animals) (60 μM, 90 min, adults): 3 and 4
- C2 (number of animals) (60 μM, 90 min, adults): 3 and 4
- NP (number of animals) (60 μM, 90 min, adults): 0
- AVERAGES Fraction Coiled (60 μM, 90 min, adults): 0.37
- AVERAGES Fraction Paralyzed (60 μM, 90 min, adults): 0.426
- AVERAGES Fraction Punc (60 μM, 90 min, adults): 0.2
- Fraction Coiled (60 μM, 90 min, adults): 0.333 and 0.4
- Fraction Paralyzed (60 μM, 90 min, adults): 0.6 and 0.222 and 0.444
- Fraction Punc (60 μM, 90 min, adults): 0.0556 and 0.4 and 0.167
- C1 (number of animals) (60 μM, 120 min, adults): 2
- NP (number of animals) (60 μM, 120 min, adults): 0
- AVERAGES Fraction Coiled (60 μM, 120 min, adults): 0.3
- AVERAGES Fraction Paralyzed (60 μM, 120 min, adults): 0.4
- AVERAGES Fraction Punc (60 μM, 120 min, adults): 0.3
- Fraction Coiled (60 μM, 120 min, adults): 0.222 and 0.444
- Fraction Paralyzed (60 μM, 120 min, adults): 0.6 and 0.333 and 0.278
- Fraction Punc (60 μM, 120 min, adults): 0.167 and 0.444 and 0.278
- NP (number of animals) (60 μM, 240 min, adults): 0
- AVERAGES Fraction Coiled (60 μM, 240 min, adults): 0.167
- AVERAGES Fraction Paralyzed (60 μM, 240 min, adults): 0.352
- AVERAGES Fraction Punc (60 μM, 240 min, adults): 0.5
- Fraction Coiled (60 μM, 240 min, adults): 0.167
- Fraction Paralyzed (60 μM, 240 min, adults): 0.6 and 0.222
- Fraction Punc (60 μM, 240 min, adults): 0.222 and 0.6
- Punc (number of animals) (60 μM, 360 min, adults): 6 and 11 and 10
- Remark on animals at 360 min (60 μM, 360 min, adults): look dead
- AVERAGES Fraction Coiled (60 μM, 360 min, adults): 0.0556
- AVERAGES Fraction Paralyzed (60 μM, 360 min, adults): 0.4
- AVERAGES Fraction Punc (60 μM, 360 min, adults): 0.5
- Fraction Coiled (60 μM, 360 min, adults): 0.0556 and 0.111 and 0.0
- Fraction Paralyzed (60 μM, 360 min, adults): 0.6 and 0.278
- Fraction Punc (60 μM, 360 min, adults): 0.333 and 0.6 and 0.556
- atypical locomotion (number of animals) [1]: 3 and 6 and 1
- coiled (number of animals) [1]: 9 and 6 and 3 and 1
- no phene (number of animals) [1]: 0
- paralyzed (number of animals) [1]: 8 and 14 and 18
- EC50 (Caenorhabditis elegans, 1 h, Fig. 1, dose-response at 60 min, wild-type young adults, +/- 95% CI, read-out: EC50): 6.6 ± 0.4 µM
